We go through 12 molecules from ChEMBL document CHEMBL1201862, “PubChem BioAssay data set” (2004).

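Method: 48-hour compound exposure of cells in 96-well plates, five concentrations, linear interpolation of endpoints. The concentration for 50% growth inhibition is given as GI50.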 Activity calls are given as the source filed them. Cut-off read from the data, not from the text of the source: active = GI50 up to about 1.1 µM and inactive = higher.

Test systems include UACC-62; UACC-257; SK-MEL-2; UO-31; T47D; Hs-578T; SF-539; HT-29; M14; SR; EKVX; MOLT-4; HCC 2998; OVCAR-4; SF-268; OVCAR-5; BT-549; SK-OV-3; U-251; NCI-H522.
Common to all, as to test: NCI tumour cell line growth inhibition, 48 h

In the case of `CC1C[C@]2(C)C(=O)Nc3ccccc3[C@@H]2Nc2ccccc21` (some centres undefined), the GI50 is 15.1 µM (inactive) with UACC-62; 15.6 µM (inactive) in the assay with UACC-257; 20.1 µM (inactive) in the assay with SK-MEL-2; 50 µM (inactive) in the assay on UO-31; 42.5 µM (inactive) in the assay on T47D; 20 µM (inactive) in the assay with Hs-578T. Further, the GI50 with SF-539 was 23.4 µM (inactive); with HT-29, 14.7 µM (inactive); in the assay on M14 it was 26.1 µM (inactive); with SR, 16.2 µM (inactive); in the assay on EKVX, 19.9 µM (inactive); in the assay with MOLT-4 it was 17.4 µM (inactive). In addition, the GI50 in the assay on HCC 2998 is 33.7 µM (inactive); in the assay with OVCAR-4, 44.3 µM (inactive); in the assay with SF-268, 23.7 µM (inactive); with OVCAR-5, 35.6 µM (inactive).
As for `C(=C\c1cc[n+](CCc2ccccc2)cc1)/c1ccccc1`, the GI50 is 10.7 µM (inactive) in the assay on UACC-62; 4.25 µM (inactive) with UACC-257; 11.3 µM (inactive) with BT-549; 17.1 µM (inactive) in the assay on SK-MEL-2; > 100 µM (inactive) in the assay with UO-31; 5.58 µM (inactive) in the assay with T47D. Also, the GI50 was 18.6 µM (inactive) in the assay with SK-OV-3; 15.2 µM (inactive) in the assay with Hs-578T; 20.4 µM (inactive) in the assay on SF-539; 6.79 µM (inactive) in the assay on HT-29; 7.91 µM (inactive) in the assay with M14; 56.9 µM (inactive) in the assay with EKVX. For the same molecule, the GI50 in the assay with U-251 is 4.9 µM (inactive); with MOLT-4 it was 12.9 µM (inactive); in the assay on OVCAR-4 it was 9.04 µM (inactive); with SF-268, 18.1 µM (inactive); in the assay with OVCAR-5, 22.9 µM (inactive); with NCI-H522 it was 14.7 µM (inactive).
As to `O=C(c1ccc(Cl)cc1)N(C(=O)N1CCC(c2ccccc2)CC1)c1ccccc1`, the GI50 in the assay with UACC-62 is 31.8 µM (inactive); with UACC-257, 25.4 µM (inactive); in the assay on BT-549, 19.5 µM (inactive); in the assay on SK-MEL-2 it was 37.2 µM (inactive); in the assay on UO-31, 12.1 µM (inactive); in the assay with T47D it was 11.1 µM (inactive). The GI50 in the assay on SK-OV-3 was > 100 µM (inactive); with Hs-578T, 24.2 µM (inactive); in the assay with SF-539 it was 65 µM (inactive); in the assay on HT-29, 31.3 µM (inactive); in the assay with M14, 18.4 µM (inactive); in the assay on EKVX, 10.4 µM (inactive). Further, the GI50 in the assay on U-251 was 39.5 µM (inactive); in the assay with MOLT-4, 21.8 µM (inactive); in the assay on SF-268, 82 µM (inactive); in the assay on OVCAR-5, 0.558 µM (active).
For the molecule `Cc1ccc(S(=O)(=O)Oc2nc3ccccc3nc2N(S(=O)(=O)c2ccc(C)cc2)S(=O)(=O)c2ccc(C)cc2)cc1`, the GI50 in the assay with UACC-62 is 56.5 µM (inactive); in the assay on UACC-257, 61.1 µM (inactive); in the assay with BT-549, 90.6 µM (inactive); in the assay with SK-MEL-2, 81.8 µM (inactive); with UO-31, 61.8 µM (inactive); with SK-OV-3, > 100 µM (inactive). The GI50 was 63.1 µM (inactive) with Hs-578T; 29 µM (inactive) with SF-539; 28.2 µM (inactive) in the assay on HT-29; 76.6 µM (inactive) with M14; 30.3 µM (inactive) with EKVX; 39.9 µM (inactive) with U-251. For the same molecule, the GI50 was 47.4 µM (inactive) with MOLT-4; 0.625 µM (active) in the assay on HCC 2998; 50.6 µM (inactive) in the assay on SF-268; 33 µM (inactive) with OVCAR-5; 74 µM (inactive) with NCI-H522.
Take `CSc1cnc2ccccc2c1SC1CN(Cc2ccccc2)c2ccccc2C1=O` (centres undefined): the GI50 with UACC-62, in the assay on UACC-257, with BT-549, in the assay on SK-MEL-2, in the assay with UO-31 and with T47D was > 100 µM (inactive) throughout. Also, the GI50 was > 100 µM (inactive) with SK-OV-3; > 100 µM (inactive) in the assay with SF-539; 47.9 µM (inactive) with HT-29; > 100 µM (inactive) in the assay on M14; > 100 µM (inactive) in the assay with SR; > 100 µM (inactive) with EKVX. Further, the GI50 with U-251 was > 100 µM (inactive); with MOLT-4 it was > 100 µM (inactive); in the assay with HCC 2998 it was > 100 µM (inactive); with OVCAR-4, > 100 µM (inactive); in the assay on SF-268, 54.8 µM (inactive); with OVCAR-5, > 100 µM (inactive). For the same molecule, the GI50 in the assay with NCI-H522 is > 100 µM (inactive).
As to `Cn1c2c3ccccc3nc-2c(O)c2ccccc21` [HYDROXYCRYPTOLEPINE], the GI50 with UACC-62, in the assay on UACC-257, in the assay with SK-MEL-2, in the assay on UO-31, in the assay with T47D and in the assay with SK-OV-3 was > 100 µM (inactive) in each case. For the same molecule, the GI50 with SF-539 is 50.5 µM (inactive); in the assay with HT-29, > 100 µM (inactive); in the assay with M14, > 100 µM (inactive); in the assay with EKVX it was > 100 µM (inactive); with U-251 it was > 100 µM (inactive); with MOLT-4 it was 27.7 µM (inactive). Also, the GI50 was > 100 µM (inactive) in the assay with HCC 2998; 54.1 µM (inactive) in the assay on OVCAR-4; 0.735 µM (active) in the assay with SF-268; > 100 µM (inactive) with OVCAR-5; > 100 µM (inactive) in the assay on NCI-H522.
As to `Cc1ccccc1Nc1cn(COCc2ccccc2)c(=O)[nH]c1=O`, the GI50 in the assay with UACC-62 is 75.2 µM (inactive); with UACC-257, > 100 µM (inactive); in the assay with BT-549, 14.5 µM (inactive); with UO-31 it was 52.4 µM (inactive); with Hs-578T, 54.3 µM (inactive); in the assay on HT-29, 48.5 µM (inactive). For the same molecule, the GI50 is > 100 µM (inactive) with M14; 30.7 µM (inactive) in the assay with EKVX; > 100 µM (inactive) in the assay with U-251; 55.2 µM (inactive) with MOLT-4; > 100 µM (inactive) with HCC 2998; 39.5 µM (inactive) in the assay on OVCAR-4. Also, the GI50 in the assay on SF-268 was 70.6 µM (inactive); in the assay on OVCAR-5 it was > 100 µM (inactive); in the assay with NCI-H522, 40.2 µM (inactive).
Regarding `NC(=S)N/N=C1\C(=O)Nc2c(Cl)cc(Cl)cc21`, the GI50 was 17.3 µM (inactive) with UACC-62; 24.2 µM (inactive) in the assay with UACC-257; 21 µM (inactive) in the assay with BT-549; 15.5 µM (inactive) with SK-MEL-2; 28.1 µM (inactive) in the assay with UO-31; 41.9 µM (inactive) in the assay with SK-OV-3. The GI50 in the assay on Hs-578T is 24 µM (inactive); in the assay with SF-539, 18.1 µM (inactive); with HT-29, 18.8 µM (inactive); in the assay with M14 it was 17.2 µM (inactive); in the assay with SR, 16.3 µM (inactive); with EKVX, 20.3 µM (inactive). Also, the GI50 is 19.5 µM (inactive) in the assay with U-251; 14 µM (inactive) in the assay with MOLT-4; 34.5 µM (inactive) with HCC 2998; 34 µM (inactive) in the assay with OVCAR-4; 81.7 µM (inactive) in the assay with OVCAR-5.
Take `COC(=O)CCN(CCC(=O)OC)C1CC1`: the GI50 is > 100 µM (inactive) in the assay on UACC-62; > 100 µM (inactive) in the assay on UACC-257; 76.7 µM (inactive) with UO-31; > 100 µM (inactive) with T47D; > 100 µM (inactive) in the assay on SK-OV-3; > 100 µM (inactive) in the assay on Hs-578T. For the same molecule, the GI50 with SF-539, with HT-29, in the assay with M14, in the assay on SR, in the assay with EKVX and in the assay on U-251 was > 100 µM (inactive) each time. Besides, the GI50 in the assay with MOLT-4, in the assay with HCC 2998, in the assay with OVCAR-4, in the assay with SF-268 and in the assay on OVCAR-5 was > 100 µM (inactive) in each case.
Regarding `Nc1c(Cl)ncnc1NCC1(CO)CCC1`, the GI50 was 63.4 µM (inactive) in the assay with UACC-257; > 100 µM (inactive) with BT-549; > 100 µM (inactive) in the assay with SK-MEL-2; > 100 µM (inactive) in the assay with UO-31; > 100 µM (inactive) with Hs-578T; > 100 µM (inactive) in the assay with SF-539. Besides, the GI50 in the assay on HT-29 is > 100 µM (inactive); in the assay with SR, > 100 µM (inactive); in the assay on EKVX, 90.4 µM (inactive); in the assay with U-251, > 100 µM (inactive); in the assay on MOLT-4, > 100 µM (inactive); in the assay on OVCAR-4, > 100 µM (inactive). Further, the GI50 with SF-268, with OVCAR-5 and in the assay with NCI-H522 was > 100 µM (inactive) throughout.
In the case of `N#CCCN(CCN(C(=O)Nc1ccccc1)c1ccccc1)C(=O)Nc1ccccc1`, the GI50 is 65 µM (inactive) in the assay with UACC-62; > 100 µM (inactive) with UACC-257; 42.6 µM (inactive) in the assay with BT-549; > 100 µM (inactive) with SK-MEL-2; 31.2 µM (inactive) in the assay with UO-31; > 35.1 µM (inactive) in the assay with T47D. Besides, the GI50 in the assay with SK-OV-3 is > 100 µM (inactive); in the assay with SF-539, > 65 µM (inactive); with HT-29 it was > 100 µM (inactive); with M14, 77.6 µM (inactive); in the assay with SR, 42 µM (inactive); with EKVX, 69.5 µM (inactive). Further, the GI50 was 65.6 µM (inactive) in the assay on U-251; 28.8 µM (inactive) in the assay with MOLT-4; > 80.7 µM (inactive) in the assay with HCC 2998; > 100 µM (inactive) in the assay on OVCAR-4; > 100 µM (inactive) in the assay on SF-268; > 100 µM (inactive) with OVCAR-5. Also, the GI50 with NCI-H522 was > 55.3 µM (inactive).
For `CCOC(=O)CCC(NC(=O)Cc1ccc(Oc2nc3ccccc3nc2-c2cccs2)cc1)C(=O)OCC` (centres undefined), the GI50 with UACC-62 is 38.4 µM (inactive); in the assay with UACC-257, > 100 µM (inactive); in the assay with BT-549, 29.7 µM (inactive); in the assay on SK-MEL-2, 56.5 µM (inactive); in the assay with UO-31, 22.6 µM (inactive); in the assay on Hs-578T it was 13.6 µM (inactive). The GI50 is 5.14 µM (inactive) in the assay on SF-539; > 100 µM (inactive) in the assay with HT-29; > 100 µM (inactive) with M14; > 100 µM (inactive) in the assay on SR; 26.1 µM (inactive) in the assay with EKVX; 11.4 µM (inactive) in the assay on U-251. Besides, the GI50 is > 100 µM (inactive) with MOLT-4; 32.2 µM (inactive) in the assay with HCC 2998; 13.5 µM (inactive) in the assay with OVCAR-4; 1.64 µM (inactive) with SF-268; 8.97 µM (inactive) in the assay with OVCAR-5; 52 µM (inactive) in the assay with NCI-H522.
